In patent publication US11498903B2 (BRISTOL-MYERS SQUIBB COMPANY, priority 2017, dated 2022):
Read-outs that look alike come from different tables or passages of the source.

Target: T1, human APJ receptor (Homo sapiens, UniProt P35414)
T1 construct: expressed in transfected cells
T1 sequence (P35414 1-380): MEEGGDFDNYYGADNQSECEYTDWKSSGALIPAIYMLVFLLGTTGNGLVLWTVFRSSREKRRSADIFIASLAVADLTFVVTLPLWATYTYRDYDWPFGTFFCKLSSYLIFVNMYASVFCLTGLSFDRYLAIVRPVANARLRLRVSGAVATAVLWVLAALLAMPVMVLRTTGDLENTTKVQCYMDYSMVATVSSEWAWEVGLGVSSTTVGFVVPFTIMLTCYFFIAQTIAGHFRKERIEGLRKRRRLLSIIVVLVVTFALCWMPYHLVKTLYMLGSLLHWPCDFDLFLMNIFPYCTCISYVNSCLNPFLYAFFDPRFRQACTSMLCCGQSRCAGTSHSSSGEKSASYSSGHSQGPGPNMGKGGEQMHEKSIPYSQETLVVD
Experiment: Intracellular cAMP accumulation assay (APJ hcAMP, HTRF)
Format: cell-based
Settings: HEK293 cells stably expressing human APJ receptor
Method in brief: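 HEK293 cells stably expressing human APJ, 5,000/well, incubated 30 min at room temperature with compound plus […] and 2 μM forskolin. cAMP read by HTRF against a cAMP standard curve; EC50 from variable-slope sigmoidal fit, Ymax as % of (Pyr1)apelin-13 inhibition.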

[1] = Table 1, inhibition of forskolin-mediated cAMP production, read-out: APJ hcAMP EC50
[2] = Table 2, read-out: APJ cAMP Human EC50

| EC50 [1] | EC50 [2] | SMILES |
| --- | --- | --- |
| 0.101 to 0.5 µM | 0.101 to 0.5 µM | CCC[C@@H](NC(=O)c1ccc(-c2cccc(F)c2-c2nc3ccccc3[nH]2)c(C(=O)O)c1)c1ccccc1 [Example 55, 2′-(1H-1,3-benzodiazol-2-yl)-3′-fluoro-4-{[(1R)-1-phenylbutyl]carbamoyl}-[1,1′-biphenyl]-2-carboxylic acid] |
| < 0.01 µM | < 0.01 µM | CCC[C@@H](NC(=O)c1ccc(-c2cc(C(F)(F)F)ccc2-c2nc3cc(OC)ccc3[nH]2)c(C(=O)O)c1)c1ccccc1 [Example 56, 2′-(5-methoxy-1H-1,3-benzodiazol-2-yl)-4-{[(1R)-1-phenylbutyl]carbamoyl}-5′-(trifluoromethyl)-[1,1′-biphenyl]-2-carboxylic acid] |
| < 0.01 µM | < 0.01 µM | CCC[C@@H](NC(=O)c1ccc(-c2ccc(Cl)cc2-c2nc3cc(OC)ccc3[nH]2)c(C(=O)O)c1)c1ccccc1 [Example 57, 4′-chloro-2′-(5-methoxy-1H-1,3-benzodiazol-2-yl)-4-{[(1R)-1-phenylbutyl]carbamoyl}-[1,1′-biphenyl]-2-carboxylic acid] |
| < 0.01 µM | < 0.01 µM | CCC[C@@H](NC(=O)c1ccc(-c2ccccc2-c2nc3cc(OC)ccc3[nH]2)c(C(=O)O)c1)c1ccccc1 [Example 58, 2′-(5-methoxy-1H-1,3-benzodiazol-2-yl)-4-{[(1R)-1-phenylbutyl]carbamoyl}-[1,1′-biphenyl]-2-carboxylic acid] |
| < 0.01 µM | < 0.01 µM | CCC[C@@H](NC(=O)c1ccc(-c2cc(OC)ccc2-c2nc3cc(OC)ccc3[nH]2)c(C(=O)O)c1)c1ccccc1 [Example 59, 5′-methoxy-2′-(5-methoxy-1H-1,3-benzodiazol-2-yl)-4-{[(1R)-1-phenylbutyl]carbamoyl}-[1,1′-biphenyl]-2-carboxylic acid] |
| < 0.01 µM | < 0.01 µM | CCC[C@@H](NC(=O)c1ccc(-c2cc(C(F)(F)F)ccc2-c2nc3cc(C(C)(C)C)ccc3[nH]2)c(C(=O)O)c1)c1ccccc1 [Example 60, 2′-(5-tert-butyl-1H-1,3-benzodiazol-2-yl)-4-{[(1R)-1-phenylbutyl]carbamoyl}-5′-(trifluoromethyl)-[1,1′-biphenyl]-2-carboxylic acid] |
| < 0.01 µM | < 0.01 µM | CCC[C@@H](NC(=O)c1ccc(-c2cc(OC)ccc2-c2nc3cc(C(C)(C)C)ccc3[nH]2)c(C(=O)O)c1)c1ccccc1 [Example 61, 2′-(5-tert-butyl-1H-1,3-benzodiazol-2-yl)-5′-methoxy-4-{[(1R)-1-phenylbutyl]carbamoyl}-[1,1′-biphenyl]-2-carboxylic acid] |
| 0.01 to 0.1 µM | < 0.01 µM | CCC[C@@H](NC(=O)c1ccc(-c2ccccc2-c2nc3cc(C(C)(C)C)ccc3[nH]2)c(C(=O)O)c1)c1ccccc1 [Example 62, 2′-(5-tert-butyl-1H-1,3-benzodiazol-2-yl)-4-{[(1R)-1-phenylbutyl]carbamoyl}-[1,1′-biphenyl]-2-carboxylic acid] |
| 0.01 to 0.1 µM | 0.01 to 0.1 µM | CCC[C@@H](NC(=O)c1ccc(-c2ccc(Cl)cc2-c2nc3cc(C(C)(C)C)ccc3[nH]2)c(C(=O)O)c1)c1ccccc1 [Example 63, 2′-(5-tert-butyl-1H-1,3-benzodiazol-2-yl)-4′-chloro-4-{[(1R)-1-phenylbutyl]carbamoyl}-[1,1′-biphenyl]-2-carboxylic acid] |
| < 0.01 µM | < 0.01 µM | COC[C@@H](NC(=O)c1ccc(-c2ccccc2-c2nc3cc(OC)ccc3[nH]2)c(C(=O)O)c1)c1ccccc1 [Example 64, 4-{[(1S)-2-methoxy-1-phenylethyl]carbamoyl}-2′-(5-methoxy-1H-1,3-benzodiazol-2-yl)-[1,1′-biphenyl]-2-carboxylic acid] |
| < 0.01 µM | < 0.01 µM | COC[C@@H](NC(=O)c1ccc(-c2ccccc2-c2nc3cc(C(C)(C)C)ccc3[nH]2)c(C(=O)O)c1)c1ccccc1 [Example 65, 2′-(5-tert-butyl-1H-1.3-benzodiazol-2-yl)-4-{[(1S)-2-methoxy-1-phenylethyl]carbamoyl}-[1,1′-biphenyl]-2-carboxylic acid] |
| 0.01 to 0.1 µM | 0.01 to 0.1 µM | COC[C@@H](NC(=O)c1ccc(-c2ccccc2-c2nc3ccccc3[nH]2)c(C(=O)O)c1)c1ccccc1 [Example 66, 2′-(1H-1,3-benzodiazol-2-yl)-4-{[(1S)-2-methoxy-1-phenylethyl]carbamoyl}-[1,1′-biphenyl]-2-carboxylic acid] |
| < 0.01 µM | < 0.01 µM | CCC[C@@H](NC(=O)c1cc(C(=O)O)c(-c2cc(Cl)ccc2-c2nc3cc(OC)ccc3[nH]2)cc1C)c1ccccc1 [Example 67, 5′-chloro-2′-(5-methoxy-1H-1,3-benzodiazol-2-yl)-5-methyl-4-{[(1R)-1-phenylbutyl]carbamoyl}-[1,1′-biphenyl]-2-carboxylic acid] |
| < 0.01 µM | < 0.01 µM | CCC[C@@H](NC(=O)c1cc(C(=O)O)c(-c2cc(Cl)ccc2-c2nc3cc(C(C)(C)C)ccc3[nH]2)cc1C)c1ccccc1 [Example 68, 2,-(5-tert-butyl-1H-1,3-benzodiazol-2-yl)-5′-chloro-5-methyl-4-{[(1R)-1-phenylbutyl]carbamoyl}-[1,1′-biphenyl]-2-carboxylic acid] |
| < 0.01 µM | < 0.01 µM | COC[C@@H](NC(=O)c1ccc(-c2cc(Cl)ccc2-c2nc3ccccc3[nH]2)c(C(=O)O)c1)c1ccccc1 [Example 69, 2′-(1H-1,3-benzodiazol-2-yl)-5′-chloro-4-{[(1S)-2-methoxy-1-phenylethyl]carbamoyl}-[1,1′-biphenyl]-2-carboxylic acid] |
| < 0.01 µM | < 0.01 µM | COc1ccccc1[C@@H](C)NC(=O)c1ccc(-c2cc(Cl)ccc2-c2nc3ccccc3[nH]2)c(C(=O)O)c1 [Example 70, 2′-(1H-1,3-benzodiazol-2-yl)-5′-chloro-4-{[(1R)-1-(2-methoxyphenyl)ethyl]carbamoyl}-[1,1′-biphenyl]-2-carboxylic acid] |
| 0.01 to 0.1 µM | 0.01 to 0.1 µM | CCC[C@H](NC(=O)c1ccc(-c2cc(Cl)ccc2-c2nc3ccccc3[nH]2)c(C(=O)O)c1)c1ccccc1 [Example 71, 2′-(1H-1,3-benzodiazol-2-yl)-5′-chloro-4-{[(1S)-1-phenylbutyl]carbamoyl}-[1,1′-biphenyl]-2-carboxylic acid] |
| 0.01 to 0.1 µM | 0.01 to 0.1 µM | C[C@@H](NC(=O)c1ccc(-c2cc(Cl)ccc2-c2nc3ccccc3[nH]2)c(C(=O)O)c1)c1cccc(Cl)c1 [Example 72, 2′-(1H-1,3-benzodiazol-2-yl)-5′-chloro-4-{[(1R)-1-(3-chlorophenyl)ethyl]carbamoyl}-[1,1′-biphenyl]-2-carboxylic acid] |
| 0.01 to 0.1 µM | 0.01 to 0.1 µM | C[C@@H](NC(=O)c1ccc(-c2cc(Cl)ccc2-c2nc3ccccc3[nH]2)c(C(=O)O)c1)c1cccc2ccccc12 [Example 73, 2′-(1H-1,3-benzodiazol-2-yl)-5′-chloro-4-{[(1R)-1-(naphthalen-1-yl)ethyl]carbamoyl}-[1,1′-biphenyl]-2-carboxylic acid] |
| 0.01 to 0.1 µM | 0.01 to 0.1 µM | COc1cccc([C@@H](C)NC(=O)c2ccc(-c3cc(Cl)ccc3-c3nc4ccccc4[nH]3)c(C(=O)O)c2)c1 [Example 74, 2′-(1H-1,3-benzodiazol-2-yl)-5′-chloro-4-{[(1R)-1-(3-methoxyphenyl)ethyl]carbamoyl}-[1,1′-biphenyl]-2-carboxylic acid] |
| 0.01 to 0.1 µM | 0.01 to 0.1 µM | C[C@@H](NC(=O)c1ccc(-c2cc(Cl)ccc2-c2nc3ccccc3[nH]2)c(C(=O)O)c1)c1ccccc1Cl [Example 75, 2′-(1H-1,3-benzodiazol-2-yl)-5′-chloro-4-{[(1R)-1-(2-chlorophenyl)ethyl]carbamoyl}-[1,1′-biphenyl]-2-carboxylic acid] |
| 0.01 to 0.1 µM | 0.01 to 0.1 µM | C[C@@H](NC(=O)c1ccc(-c2cc(Cl)ccc2-c2nc3ccccc3[nH]2)c(C(=O)O)c1)c1ccccc1 [Example 76, 2′-(1H-1,3-benzodiazol-2-yl)-5′-chloro-4-{[(1R)-1-phenylethyl]carbamoyl}-[1,1′-biphenyl]-2-carboxylic acid] |
| 0.01 to 0.1 µM | 0.01 to 0.1 µM | CN(C)C[C@@H](NC(=O)c1ccc(-c2cc(Cl)ccc2-c2nc3ccccc3[nH]2)c(C(=O)O)c1)c1ccccc1 [Example 77, 2′-(1H-1,3-benzodiazol-2-yl)-5′-chloro-4-{[(1S)-2-(dimethylamino)-1-phenylethyl]carbamoyl}-[1,1′-biphenyl]-2-carboxylic acid] |
| 0.101 to 0.5 µM | 0.101 to 0.5 µM | COC[C@H](Cc1ccccc1)NC(=O)c1ccc(-c2cc(Cl)ccc2-c2nc3ccccc3[nH]2)c(C(=O)O)c1 [Example 78, 2′-(1H-1,3-benzodiazol-2-yl)-5′-chloro-4-{[(2S)-1-methoxy-3-phenylpropan-2-yl]carbamoyl}-[1,1′-biphenyl]-2-carboxylic acid] |
| < 0.01 µM | < 0.01 µM | COC[C@@H](NC(=O)c1ccc(-c2cc(Cl)ccc2-c2nc3cc(Cl)ccc3[nH]2)c(C(=O)O)c1)c1ccccc1 [Example 79, 5′-chloro-2′-(5-chloro-1H-1,3-benzodiazol-2-yl)-4-{[(1S)-2-methoxy-1-phenylethyl]carbamoyl}-[1,1′-biphenyl]-2-carboxylic acid] |
